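Five concentrations, 48 hours, 96-well plates. Definition used: TGI = concentration required for complete inhibition of growth.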
Key:
Test in all cases: NCI anticancer screen, dose series, 48 h
[1] = test system: SF-268 CNS
[2] = test system: IGROV1 ovarian
[3] = test system: SF-295 CNS
[4] = test system: COLO 205 colon
[5] = test system: RPMI-8226 leukemia
[6] = test system: HCT-15 colon
[7] = test system: XF 498 CNS
[8] = test system: DMS 273 small cell lung
[9] = test system: CCRF-CEM leukemia
[10] = test system: SW-620 colon
[11] = test system: M14 melanoma
[12] = test system: A549 NSCLC
[13] = test system: EKVX NSCLC
[14] = test system: OVCAR-8 ovarian
[15] = test system: HCT-116 colon
[16] = test system: SK-MEL-5 melanoma
[17] = test system: UO-31 renal
[18] = test system: DLD-1 colon
[19] = test system: LOX IMVI melanoma
[20] = test system: HL-60(TB) leukemia
[21] = test system: UACC-62 melanoma
[22] = test system: LXFL 529 NSCLC
[23] = test system: 786-0 renal
[24] = test system: HOP-92 NSCLC
[25] = test system: U251 CNS
[26] = test system: DMS 114 small cell lung
[27] = test system: ACHN renal
[28] = test system: SN12C renal
[29] = test system: KM20L2 colon
[30] = test system: K-562 leukemia
[31] = test system: HOP-18 NSCLC
[32] = test system: M19-MEL melanoma
[33] = test system: SF-539 CNS
[34] = test system: TK-10 renal
[35] = test system: SK-MEL-28 melanoma
[36] = test system: HT29 colon
[37] = test system: A498 renal
[38] = test system: MOLT-4 leukemia
[39] = test system: SK-OV-3 ovarian
[40] = test system: NCI-H460 lung
[41] = test system: HOP-62 NSCLC
[42] = test system: SNB-19 CNS
[43] = test system: KM12 colon
[44] = test system: SK-MEL-2 melanoma
[45] = test system: OVCAR-4 ovarian
[46] = test system: RXF 393 renal
[47] = test system: UACC-257 melanoma
[48] = test system: OVCAR-3 ovarian
[49] = test system: OVCAR-5 ovarian
[50] = test system: NCI-H23 lung
[51] = test system: HCC-2998 colon
[52] = test system: SNB-78 CNS
[53] = test system: MALME-3M melanoma
[54] = test system: NCI-H522 lung
[55] = test system: SNB-75 CNS
[56] = test system: NCI-H226 lung
[57] = test system: CAKI-1 renal

COc1ccc(/C=C/C(=O)c2c(-c3ccccc3)nn(C)c(=O)c2N2CCCC2)cc1
TGI [1]: > 100 µM | TGI [2]: > 100 µM | TGI [3]: > 100 µM | TGI [4]: > 100 µM | TGI [5]: > 100 µM | TGI [6]: > 100 µM | TGI [7]: > 100 µM | TGI [8]: > 100 µM | TGI [9]: > 100 µM | TGI [10]: > 100 µM | TGI [11]: > 100 µM | TGI [12]: > 100 µM | TGI [13]: > 100 µM | TGI [14]: > 100 µM | TGI [15]: > 100 µM | TGI [16]: > 100 µM | TGI [17]: > 100 µM | TGI [18]: > 100 µM | TGI [19]: > 100 µM | TGI [20]: > 100 µM | TGI [21]: > 100 µM | TGI [22]: > 100 µM | TGI [23]: > 100 µM | TGI [24]: 37.5 µM | TGI [25]: > 100 µM | TGI [26]: > 100 µM | TGI [27]: > 100 µM | TGI [28]: > 100 µM | TGI [29]: > 100 µM | TGI [30]: > 100 µM | TGI [31]: > 100 µM | TGI [32]: > 100 µM | TGI [33]: > 100 µM | TGI [34]: > 100 µM | TGI [35]: > 100 µM | TGI [36]: > 100 µM | TGI [37]: > 100 µM | TGI [38]: > 100 µM | TGI [39]: > 100 µM | TGI [40]: > 100 µM

COc1ccc(C(=O)NNC(=O)c2nsc3ccccc23)cc1
TGI [1]: > 100 µM | TGI [2]: > 100 µM | TGI [4]: > 100 µM | TGI [5]: > 100 µM | TGI [41]: > 100 µM | TGI [6]: > 100 µM | TGI [42]: > 100 µM | TGI [8]: > 100 µM | TGI [9]: > 100 µM | TGI [10]: > 100 µM | TGI [11]: > 100 µM | TGI [12]: > 100 µM | TGI [43]: > 100 µM | TGI [13]: > 100 µM | TGI [14]: > 100 µM | TGI [44]: > 100 µM | TGI [15]: > 100 µM | TGI [16]: > 100 µM | TGI [45]: > 100 µM | TGI [17]: > 100 µM | TGI [46]: > 100 µM | TGI [19]: > 100 µM | TGI [47]: > 100 µM | TGI [20]: 82.5 µM | TGI [21]: > 100 µM | TGI [22]: > 100 µM | TGI [24]: > 100 µM | TGI [25]: > 100 µM | TGI [48]: > 100 µM | TGI [49]: > 100 µM | TGI [26]: > 100 µM | TGI [28]: > 100 µM | TGI [29]: > 100 µM | TGI [30]: > 100 µM | TGI [50]: > 100 µM | TGI [32]: > 100 µM | TGI [33]: > 100 µM | TGI [34]: > 100 µM | TGI [51]: > 100 µM | TGI [52]: > 100 µM | TGI [35]: > 100 µM | TGI [36]: > 100 µM | TGI [38]: > 100 µM

CCc1cc(C)cc2[n+]1CC=C2C
TGI [1]: > 100 µM | TGI [3]: > 100 µM | TGI [4]: > 100 µM | TGI [53]: > 100 µM | TGI [54]: > 100 µM | TGI [41]: > 100 µM | TGI [55]: > 100 µM | TGI [42]: > 100 µM | TGI [8]: > 100 µM | TGI [10]: > 100 µM | TGI [11]: > 100 µM | TGI [12]: > 100 µM | TGI [43]: > 100 µM | TGI [13]: > 100 µM | TGI [14]: > 100 µM | TGI [44]: > 100 µM | TGI [16]: > 100 µM | TGI [45]: > 100 µM | TGI [17]: > 100 µM | TGI [56]: > 100 µM | TGI [46]: > 100 µM | TGI [18]: > 100 µM | TGI [19]: > 100 µM | TGI [47]: > 100 µM | TGI [20]: > 100 µM | TGI [22]: > 100 µM | TGI [23]: > 100 µM | TGI [24]: > 100 µM | TGI [25]: > 100 µM | TGI [48]: > 100 µM | TGI [49]: > 100 µM | TGI [27]: > 100 µM | TGI [57]: > 100 µM | TGI [28]: > 100 µM | TGI [29]: > 100 µM | TGI [50]: > 100 µM | TGI [31]: 9.88 µM | TGI [32]: > 100 µM | TGI [33]: > 100 µM | TGI [34]: > 100 µM | TGI [51]: > 100 µM | TGI [52]: > 100 µM | TGI [35]: > 100 µM | TGI [36]: > 100 µM | TGI [40]: > 100 µM

CCOc1ccccc1NC(=O)CSc1nnc(Cc2ccccc2)o1
TGI [1]: 64.4 µM | TGI [2]: > 100 µM | TGI [3]: > 100 µM | TGI [4]: 36.5 µM | TGI [5]: > 100 µM | TGI [53]: 33.8 µM | TGI [54]: 40.7 µM | TGI [41]: > 100 µM | TGI [6]: 35.1 µM | TGI [55]: > 100 µM | TGI [42]: 48.7 µM | TGI [8]: 60.2 µM | TGI [9]: > 100 µM | TGI [10]: 37.2 µM | TGI [11]: 66.5 µM | TGI [12]: > 100 µM | TGI [43]: > 100 µM | TGI [14]: 54.8 µM | TGI [44]: 63 µM | TGI [15]: 84.5 µM | TGI [16]: 38.8 µM | TGI [45]: 63.5 µM | TGI [17]: 52 µM | TGI [56]: 57.5 µM | TGI [46]: 55.3 µM | TGI [18]: 55.4 µM | TGI [19]: 40 µM | TGI [47]: 98.6 µM | TGI [20]: > 100 µM | TGI [21]: 52.6 µM | TGI [22]: 32.1 µM | TGI [23]: 44.8 µM | TGI [25]: 41 µM | TGI [48]: 32.7 µM | TGI [49]: > 100 µM | TGI [26]: 32.4 µM | TGI [27]: 46.3 µM | TGI [57]: 37.6 µM | TGI [28]: 64.9 µM | TGI [29]: > 100 µM | TGI [30]: > 100 µM | TGI [50]: 52.1 µM | TGI [31]: 54.7 µM | TGI [32]: > 100 µM | TGI [33]: 53.5 µM | TGI [34]: > 100 µM | TGI [51]: > 100 µM | TGI [52]: > 100 µM | TGI [35]: > 100 µM | TGI [36]: > 100 µM | TGI [37]: > 100 µM | TGI [38]: 71.3 µM | TGI [39]: > 100 µM | TGI [40]: 44.8 µM

O=S(Cc1cnc2ccccc2c1)c1nc2ccccc2nc1-c1cccs1 (stereo unspecified)
TGI [1]: 39.6 µM | TGI [2]: 33.4 µM | TGI [3]: 61 µM | TGI [4]: 42 µM | TGI [5]: > 100 µM | TGI [53]: 37.7 µM | TGI [55]: 39.3 µM | TGI [7]: 16.9 µM | TGI [42]: 43.6 µM | TGI [8]: 34.9 µM | TGI [9]: > 100 µM | TGI [11]: 32.2 µM | TGI [12]: 48.6 µM | TGI [13]: 25 µM | TGI [14]: 51.7 µM | TGI [15]: 22.4 µM | TGI [45]: 24.6 µM | TGI [17]: 28.3 µM | TGI [56]: 11.6 µM | TGI [47]: 31.2 µM | TGI [20]: 72.8 µM | TGI [22]: 20.8 µM | TGI [23]: 27.3 µM | TGI [24]: 25 µM | TGI [25]: 33.5 µM | TGI [48]: 34.7 µM | TGI [49]: 28.5 µM | TGI [26]: 25.8 µM | TGI [27]: 26.4 µM | TGI [28]: 32.8 µM | TGI [30]: > 100 µM | TGI [50]: 35.7 µM | TGI [31]: 31.7 µM | TGI [33]: 32.8 µM | TGI [52]: 50.7 µM | TGI [35]: 34.9 µM | TGI [36]: 37.1 µM | TGI [38]: > 100 µM | TGI [39]: 73 µM

Reference: PubChem BioAssay (NCI)
